Legend:
Test in all cases: relative viability (nuclei count vs DMSO), 5 days (fraction); higher = more cells survive
[1] = compound: C1=CC2=C(C=CC(=C2)C=C3C(=O)NC(=NCC4=CC=CS4)S3)N=C1 [RO-3306] + CS(=O)(=O)CCNCc1ccc(-c2ccc3ncnc(Nc4ccc(OCc5cccc(F)c5)c(Cl)c4)c3c2)o1 [Lapatinib] (partner 2 µM)
In short: (§1)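 Relative viability equals treated-well nuclei counts divided by vehicle-well nuclei counts. Counts came from 4× images of lung cancer cell lines grown in 1536-well plates for 5 days after pin-tool dosing on the day after seeding. Dosing used one drug alone or a fixed anchor-drug dose plus five library-drug doses (not always all listed) in √10 steps, and values are medians of duplicate plates.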

[2] = compound: C1=CC2=C(C=CC(=C2)C=C3C(=O)NC(=NCC4=CC=CS4)S3)N=C1 [RO-3306] + CCNC(=O)c1noc(-c2cc(C(C)C)c(O)cc2O)c1-c1ccc(CN2CCOCC2)cc1 [Luminespib] (partner 0.01 µM)
In short: as §1

[3] = compound: O=S(=O)(c1ccccc1)N(CC(F)(F)F)c1ccc(C(O)(C(F)(F)F)C(F)(F)F)cc1 + Cc1nc(NC(=O)N2CCC[C@H]2C(N)=O)sc1-c1ccnc(C(C)(C)C(F)(F)F)c1 [Alpelisib] (partner 2 µM)
In short: as §1

[4] = compound: C1=CC2=C(C=CC(=C2)C=C3C(=O)NC(=NCC4=CC=CS4)S3)N=C1 [RO-3306] + COc1cc2c(Oc3ccc(NC(=O)C4(C(=O)Nc5ccc(F)cc5)CC4)cc3F)ccnc2cc1OCCCN1CCOCC1 [Foretinib] (partner 0.25 µM)
In short: as §1

Cell Line | relative viability ([1]; first compound 0.01 µM) | relative viability ([1]; first compound 0.03162 µM) | relative viability ([1]; first compound 0.1 µM) | relative viability ([1]; first compound 0.3162 µM) | relative viability ([1]; first compound 1 µM) | relative viability ([2]; first compound 0.01 µM) | relative viability ([2]; first compound 0.03162 µM) | relative viability ([2]; first compound 0.1 µM) | relative viability ([2]; first compound 0.3162 µM) | relative viability ([2]; first compound 1 µM) | relative viability ([3]; first compound 0.8 µM) | relative viability ([3]; first compound 2.53 µM) | relative viability ([3]; first compound 8 µM) | relative viability ([4]; first compound 0.01 µM) | relative viability ([4]; first compound 0.03162 µM) | relative viability ([4]; first compound 0.1 µM) | relative viability ([4]; first compound 0.3162 µM) | relative viability ([4]; first compound 1 µM)
201T | 1.04 | 0.954 | 1.01 | 1.04 | 0.823 | 1.02 | 1.05 | 1.02 | 1.01 | 1.05 | 1 | 0.915 | 0.987 | 1.28 | 1.27 | 1.01 | 1.03 | 0.613
A549 | 1.16 | 0.953 | 0.955 | 1.05 | 0.971 | – | – | – | – | – | 0.643 | 0.779 | 0.677 | 1.1 | 0.891 | 1 | 0.883 | 0.818
A-427 | 1.08 | 0.986 | 1.05 | 1.03 | 0.448 | 0.94 | 0.867 | 0.928 | 0.884 | 1 | 1.11 | 1.02 | 1.02 | 0.923 | 0.937 | 1.07 | 1.06 | 1.13
ABC-1 | 1.25 | 1.28 | 1.17 | 1.16 | 1.05 | 0.548 | 0.719 | 0.527 | 0.658 | 0.898 | 0.936 | 0.916 | 1.1 | 1.06 | 0.975 | 0.999 | 1.1 | 1.06
BEN | 0.726 | 0.759 | 0.754 | 0.8 | 0.744 | 0.331 | 0.337 | 0.33 | 0.4 | 0.447 | 1.13 | 0.953 | 0.902 | 0.513 | 0.684 | 0.664 | 0.673 | 0.747
CAL-12T | 0.61 | – | – | 0.73 | 0.591 | 0.68 | 0.517 | 0.228 | 0.433 | 0.604 | 1.52 | 1.13 | 1.02 | 1.18 | 1.06 | 1.16 | 1.07 | 1.23
COR-L23 | 0.708 | – | 0.942 | 1.06 | 1.18 | 0.648 | 0.591 | 0.778 | 0.868 | 0.562 | 0.846 | 0.8 | 0.867 | 0.958 | 0.941 | 0.966 | 1.13 | 1.08
COR-L 105 | 0.34 | 0.351 | 0.334 | 0.333 | 0.314 | 1.07 | 0.885 | 0.606 | 0.65 | 0.547 | 1.13 | 0.848 | 0.989 | 1.74 | 1.23 | 1.06 | 1.17 | 0.859
Calu-6 | 1.27 | 1.12 | 0.981 | 1.18 | 1.06 | – | – | – | – | – | 0.82 | 0.77 | 0.885 | 0.948 | 0.957 | 0.973 | 0.942 | 0.82
ChaGo-K-1 | – | – | – | – | – | 0.594 | 0.585 | 0.469 | 0.56 | 0.32 | – | – | – | 0.849 | 0.783 | 0.868 | 0.816 | 0.702
EBC-1 | 0.206 | 0.264 | 0.211 | 0.193 | 0.218 | – | – | – | – | – | 0.572 | 0.474 | 0.547 | 0.0936 | 0.118 | 0.101 | 0.121 | 0.0921
EKVX | 0.173 | 0.187 | 0.237 | 0.192 | 0.148 | 1.02 | 0.689 | 0.841 | 0.959 | 0.905 | 0.892 | 0.803 | 0.955 | 0.805 | 0.748 | 0.841 | 0.741 | 0.744
EMC-BAC-2 | 0.943 | 0.722 | 0.916 | 0.892 | 0.871 | 1.25 | 0.983 | 1.23 | 1.16 | 1.15 | 0.874 | 0.754 | 0.757 | 0.977 | 0.892 | 0.976 | 1.03 | 1.05
EPLC-272H | 0.789 | 0.595 | 0.803 | 0.768 | 0.849 | 0.239 | 0.114 | 0.142 | 0.367 | 0.111 | 0.818 | 1.04 | 0.681 | 0.723 | 0.541 | 0.598 | 0.683 | 0.533
H3255 | 0.236 | 0.227 | 0.245 | 0.26 | 0.26 | 0.899 | 0.938 | 0.763 | 0.837 | 0.866 | 0.783 | 0.632 | 0.569 | 0.798 | 0.711 | 0.758 | 0.848 | 0.898
HARA | 0.763 | 0.627 | 0.758 | 0.687 | 0.535 | 0.485 | 0.509 | 0.676 | 0.455 | 0.679 | 0.647 | 0.721 | 0.539 | 1.08 | 0.58 | 0.884 | 0.882 | 0.767
HCC-15 | 0.919 | 0.779 | 0.84 | 0.893 | 0.592 | 0.488 | 0.42 | 0.355 | 0.315 | 0.418 | 0.908 | 0.809 | 0.823 | 1.19 | 0.954 | 0.963 | 1.01 | 0.93
HCC-44 | 0.976 | 0.953 | 0.957 | 1.07 | 0.719 | 1.2 | 1.13 | 1.02 | 1.11 | 0.922 | 0.913 | 0.946 | 0.927 | – | – | – | – | –

Cell Line | relative viability ([1]; first compound 0.01 µM) | relative viability ([1]; first compound 0.03162 µM) | relative viability ([1]; first compound 0.1 µM) | relative viability ([1]; first compound 0.3162 µM) | relative viability ([1]; first compound 1 µM) | relative viability ([2]; first compound 0.01 µM) | relative viability ([2]; first compound 0.03162 µM) | relative viability ([2]; first compound 0.1 µM) | relative viability ([2]; first compound 0.3162 µM) | relative viability ([2]; first compound 1 µM) | relative viability ([3]; first compound 0.8 µM) | relative viability ([3]; first compound 2.53 µM) | relative viability ([3]; first compound 8 µM) | relative viability ([4]; first compound 0.01 µM) | relative viability ([4]; first compound 0.03162 µM) | relative viability ([4]; first compound 0.1 µM) | relative viability ([4]; first compound 0.3162 µM) | relative viability ([4]; first compound 1 µM)
HCC-78 | 0.733 | 0.704 | 0.732 | 0.728 | 0.583 | – | – | – | – | – | 0.349 | 0.298 | 0.289 | 0.487 | 0.568 | 0.595 | 0.564 | 0.573
HCC-366 | 1.1 | 0.939 | 0.91 | 1.09 | 0.759 | – | – | – | – | – | 0.469 | 0.436 | 0.428 | 0.91 | 0.96 | 0.942 | 0.884 | 0.931
HCC-827 | 0.226 | 0.21 | 0.17 | 0.214 | 0.17 | 0.502 | 0.433 | 0.588 | 0.586 | 0.786 | 1.05 | 1.05 | 0.842 | 1.07 | 1 | 1.05 | 1.03 | 1.06
HOP-62 | 1.47 | 0.771 | 0.93 | 1.04 | 1.06 | 1.02 | 0.926 | 0.976 | 0.925 | 0.894 | 0.551 | 0.954 | 0.706 | 1.2 | 1.07 | 1.05 | 1.05 | 1.1
IA-LM | 0.816 | – | 0.665 | 0.698 | 0.388 | – | – | – | – | – | 0.715 | 0.5 | 0.655 | 1.48 | – | 0.956 | 1.12 | 1.3
LC-2-ad | 0.949 | 0.979 | 0.868 | 0.948 | 0.883 | 1.01 | 0.907 | 0.966 | 1.09 | 1.02 | 0.576 | 0.843 | 0.841 | 0.877 | 0.804 | 0.941 | 0.967 | 0.942
LCLC-97TM1 | – | 0.794 | 0.949 | 1.22 | 1.09 | 0.765 | 0.711 | 0.61 | 0.752 | 0.93 | 0.241 | 0.252 | 0.263 | 0.928 | 0.866 | 0.927 | 0.9 | 1.01
LCLC-103H | – | – | – | – | – | 0.872 | 0.882 | 0.955 | 0.93 | 1.03 | 1.11 | 0.999 | 1.03 | 0.695 | 0.647 | 0.779 | 0.719 | 0.835
LK-2 | 0.931 | 0.705 | 0.886 | 0.88 | 0.985 | 0.187 | – | 0.18 | 0.167 | 0.228 | 1.08 | 1.16 | 1.05 | 1.28 | – | 1.5 | 1.17 | 1.37
NCI-H441 | – | – | – | – | – | 0.248 | 0.317 | 0.279 | 0.313 | 0.315 | 0.815 | 0.481 | 0.64 | 0.911 | 0.937 | 0.944 | 1.07 | 0.937
NCI-H522 | – | – | – | – | – | 1.04 | 1.12 | 1.13 | 1.14 | 1.22 | – | – | – | – | – | – | – | –
NCI-H1299 | 1 | 1.03 | 0.977 | 0.977 | 0.986 | – | – | – | – | – | 1.09 | 1.08 | 1.03 | 1.17 | 1.1 | 1.15 | 1.14 | 1.17
NCI-H1623 | – | – | – | – | – | 0.574 | 0.451 | 0.617 | 0.471 | 0.5 | – | – | – | 0.908 | 0.749 | 0.761 | 0.823 | 0.739
NCI-H1650 | 0.595 | 0.632 | 0.695 | 1.03 | 0.683 | 0.183 | 0.217 | 0.2 | 0.227 | 0.224 | – | – | – | 1.73 | 0.858 | 0.917 | 1.11 | 0.723
NCI-H1703 | 1.25 | 0.858 | 1.03 | 0.831 | 1.6 | – | – | – | – | – | 0.343 | 0.316 | 0.382 | 0.392 | – | 0.325 | 0.389 | 0.345
NCI-H1792 | 0.971 | – | 0.881 | 0.903 | 0.499 | 0.587 | – | 0.568 | 0.349 | 0.341 | 0.629 | 0.445 | 0.34 | – | – | – | – | –
NCI-H2342 | – | – | – | – | – | 0.742 | 0.627 | 0.727 | 0.759 | 0.73 | – | – | – | 1.13 | 0.889 | 1.08 | 1.05 | 0.885
SW 900 | – | – | – | – | – | 0.148 | 0.181 | 0.172 | 0.175 | 0.183 | – | – | – | 0.965 | 1.12 | 0.68 | 0.806 | 0.644
